This is an account of results in patent publication US4154730A, “Novel 17-spirosultines” (Roussel Uclaf, priority 1976, dated 1979).

Assay [1] addresses T1, progesterone receptor (hormonal receptor of rabbit uterus cytosol) (Oryctolagus cuniculus, UniProt P06186).
T1 construct: The uterus was removed and homogenized in a buffered mixture; from tissue; host or cells: uterus cytosol (105,000 g supernatant) of impuberic rabbits primed with estradiol
T1 sequence (P06186 1-930): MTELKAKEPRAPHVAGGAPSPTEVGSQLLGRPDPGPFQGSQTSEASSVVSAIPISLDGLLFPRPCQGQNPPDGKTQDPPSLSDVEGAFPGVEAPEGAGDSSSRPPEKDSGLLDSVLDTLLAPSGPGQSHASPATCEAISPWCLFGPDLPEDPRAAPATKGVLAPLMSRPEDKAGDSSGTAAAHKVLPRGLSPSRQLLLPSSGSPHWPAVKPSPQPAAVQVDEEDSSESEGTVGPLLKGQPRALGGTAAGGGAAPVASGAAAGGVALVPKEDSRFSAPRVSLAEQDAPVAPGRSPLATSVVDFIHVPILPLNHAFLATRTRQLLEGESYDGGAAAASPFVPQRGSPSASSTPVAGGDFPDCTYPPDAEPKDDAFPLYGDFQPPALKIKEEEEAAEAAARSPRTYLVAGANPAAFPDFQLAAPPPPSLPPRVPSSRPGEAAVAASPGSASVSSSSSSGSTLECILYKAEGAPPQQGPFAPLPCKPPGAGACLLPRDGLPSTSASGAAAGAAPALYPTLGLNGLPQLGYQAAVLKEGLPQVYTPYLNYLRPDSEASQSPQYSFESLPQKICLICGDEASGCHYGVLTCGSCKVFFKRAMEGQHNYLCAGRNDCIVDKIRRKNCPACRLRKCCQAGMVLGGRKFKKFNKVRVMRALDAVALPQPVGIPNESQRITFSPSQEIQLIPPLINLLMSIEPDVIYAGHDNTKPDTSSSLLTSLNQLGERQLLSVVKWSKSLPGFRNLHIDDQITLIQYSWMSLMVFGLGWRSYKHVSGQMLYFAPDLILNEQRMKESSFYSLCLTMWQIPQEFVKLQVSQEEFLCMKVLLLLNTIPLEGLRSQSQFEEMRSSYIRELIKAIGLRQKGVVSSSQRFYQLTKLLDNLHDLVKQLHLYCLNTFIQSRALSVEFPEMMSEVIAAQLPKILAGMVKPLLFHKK
In words: Progestomimetic activity by the method of hormonal receptors: displacement of tritiated product R in uterus cytosol. It counts as binding. Particulars: tritiated 17,21-dimethyl-19-nor-Δ4,9-pregnadiene-3,20-dione, 0° C., 2 hours, progesterone = 100. The procedure:
Ster. Biochem., Vol. 6 (1975), p. 615-622 and Physiology and Genetics of Reproduction, part A (1975), p. 143-160]. Impuberic rabbits received percutaneously 25 γ of estradiol and 5 days later, the animals were killed. The uterus was removed and homogenized in a buffered mixture of 10 mM of tromethamine, 0.25 M of saccharose and sufficient hydrochloric acid for a pH of 7.4. The homogenate was centrifuged at 105,000 g for one hour and the liquid surnageant or cytosol was adjusted to obtain a dilution of 1:50 (weight of uterus to volume). […] B/T max. is the percentage of tritiated product R bound when no product was added and B/T min. is the percentage of tritiated product R bound when the maximum quantity of cold product R is added. The intersections of line I50 and the curves permit the determination of the CP and CX values. CP is the concentration of cold progesterone which inhibits by 50% the fixation of tritiated product R and CX is the concentration of test product which inhibits by 50% the fixation of tritiated product R. The relative affinity of the test product or RLA is determined by the formula [formula] and the results are reported in Table I.

In assay [2] the test system is activity of monoacetate of aldosterone (urinary sodium/potassium ratio). Nature of the assay: Antialdosteronic activity in surrenalectomized rats. Particulars: male surrenalectomized rats, test product 5 mg/kg subcutaneously, urine collected for 4 hours. Type of assay: in vivo, rat (Sprague Dawley). The procedure: Male rats of the Sprague Dawley strain weighing about 180 g were subjected to surrenalectomy and at this moment, the rats received a drink of physiological serum. After about 2 days, the animals were fasted for 16 hours and then received a drink of an aqueous 5% glucose solution. The test products were administered subcutaneously at about 16 hours in the form of a solution or suspension in a 0.25% aqueous carboxymethyl cellulose solution containing Tween 80. One hour later, the animals received on the one hand intraperitoneally a hydrosaline surcharge at a dose of 5 ml/per rat of a 0.9% physiological serum and on the other hand subcutaneously 1 μg/kg of the monoacetate of aldosterone in a 2.5% alcoholic solution. The rats were placed in diuresis cages without food or drink for 4 hours and after this time, a forced urination was effected by pressure on the bladder. The volume of the obtained urine was adjusted to 50 ml and the amounts of sodium and potassium present was determined by an autoanalyzer. The results are expressed as a percentage of inhibition of the activity of 1 μg/kg of subcutaneously injected monoacetate of aldosterone by the ratio of sodium concentration to potassium concentration of the surrenalectomized rats.

For `C[C@]12CCC3=C4CCC(=O)C=C4CC[C@H]3[C@@H]1CC[C@@]21CCS(=O)O1` (stereo partly drawn) [product A, B isomer of (17R) 2'-oxidospiro-[Δ^4,9-estradiene-17,5'-(1',2')-oxathiolane]-3-one], the “RLA (relative affinity of the test product, from CP and CX)” value in assay [1] stood at 280. In addition, in assay [2], the “percentage of inhibition of the activity of 1 μg/kg of subcutaneously injected monoacetate of aldosterone (sodium/potassium ratio)” value is listed as 88%.

Take `C[C@]12C=CC3=C4CCC(=O)C=C4CC[C@H]3[C@@H]1CC[C@@]21CCS(=O)O1` (stereo partly drawn) [product B, B isomer of (17R) 2'-oxidospiro-[Δ^4,9,11-estratriene-17,5'-(1',2')-oxathiolane]-3-one]: the “RLA (relative affinity of the test product, from CP and CX)” value in assay [1] amounted to 400.
